According to patent publication US11319299B2, “Substituted carboxamides as inhibitors of WDR5 protein-protein binding” (PROPELLON THERAPEUTICS INC., priority 2016, dated 2022):

biological target: WDR5 (Homo sapiens (Human), UniProt P61964); experiment: Surface Plasmon Resonance (SPR) assay, KD and residence time; type: binding; details: surface plasmon resonance (SPR) assay; read-out: WDR5 binding affinity (KD)

Kd	SMILES
209 nM	C[C@@H]1CN(c2cc(F)c(-c3cnc(N4CCOCC4)nc3)cc2NC(=O)c2cncnc2C(F)(F)F)C[C@H](C)N1C [Example 187, N-[4-fluoro-5-(2-morpholin-4-ylpyrimidin-5-yl)-2-[(3R,5S)-3,4,5-trimethylpiperazin-1-yl]phenyl]-4-(trifluoromethyl)pyrimidine-5-carboxamide]
253 nM	C[C@@H]1CN(c2cc(F)c(-c3cnc(N4CCOCC4)nc3)cc2NC(=O)c2ccccc2)C[C@H](C)N1C [Example 74, N-[4-fluoro-5-(2-morpholin-4-ylpyrimidin-5-yl)-2-[(3R,5S)-3,4,5-trimethylpiperazin-1-yl]phenyl]benzamide]
8.15 nM	C[C@@H]1CN(c2cc(F)c(-c3cncc(C#N)c3)cc2NC(=O)c2c[nH]c(=O)cc2C(F)(F)F)C[C@H](C)N1C [Example 205, N-[5-(5-cyanopyridin-3-yl)-4-fluoro-2-[(3R,5S)-3,4,5-trimethylpiperazin-1-yl]phenyl]-6-oxo-4-(trifluoromethyl)-1H-pyridine-3-carboxamide]
0.338 nM	COCCOc1ccc(-c2cc(NC(=O)c3c[nH]c(=O)cc3C(F)(F)F)c(N3C[C@@H](C)N(C)[C@@H](C)C3)cc2F)cn1 [Example 84, N-[4-fluoro-5-[6-(2-methoxyethoxy)pyridin-3-yl]-2-[(3R,5S)-3,4,5-trimethylpiperazin-1-yl]phenyl]-6-oxo-4-(trifluoromethyl)-1H-pyridine-3-carboxamide]
29 nM	C[C@@H]1CN(c2cc(F)c(-c3cnc(N4CCOCC4)nc3)cc2NC(=O)c2cc(F)cc(Cl)c2)C[C@H](C)N1C [Example 159, 3-chloro-5-fluoro-N-[4-fluoro-5-(2-morpholin-4-ylpyrimidin-5-yl)-2-[(3R,5S)-3,4,5-trimethylpiperazin-1-yl]phenyl]benzamide]

same assay, conditions: surface plasmon resonance (SPR); read-out: WDR5 binding affinity (KD)

Kd	SMILES
3.07 nM	C[C@@H]1CN(c2cc(F)c(-c3nc(C(=O)NC4CCCCC4)cs3)cc2NC(=O)c2c[nH]c(=O)cc2C(F)(F)F)C[C@H](C)N1C [Example 484, N-Cyclohexyl-2-[2-fluoro-5-[[6-oxo-4-(trifluoromethyl)-1H-pyridine-3-carbonyl]amino]-4-[(3R,5S)-3,4,5-trimethylpiperazin-1-yl]phenyl]-1,3-thiazole-4-carboxamide]
3.47 nM	C[C@@H]1CN(c2cc(F)c(C3=CCN(C(=O)OC4CC(F)(F)C4)CC3)cc2NC(=O)c2c[nH]c(=O)cc2C(F)F)C[C@H](C)N1C [Example 702, (3,3-difluorocyclobutyl) 4-[5-[[4-(difluoromethyl)-6-oxo-1H-pyridine-3-carbonyl]amino]-2-fluoro-4-[(3R,5S)-3,4,5-trimethylpiperazin-1-yl]phenyl]-3,6-dihydro-2H-pyridine-1-carboxylate]
0.943 nM	COc1ccc(C(=O)N2CC=C(c3cc(NC(=O)c4c[nH]c(=O)cc4C(F)(F)F)c(N4C[C@@H](C)N(C)[C@@H](C)C4)cc3F)CC2)cc1 [Example 565, N-[4-fluoro-5-[1-(4-methoxybenzoyl)-3,6-dihydro-2H-pyridin-4-yl]-2-[(3R,5S)-3,4,5-trimethylpiperazin-1-yl]phenyl]-6-oxo-4-(trifluoromethyl)-1H-pyridine-3-carboxamide]
1.01 nM	CC1CN(c2cc(F)c(-c3ccc(N4CCOCC4)c(F)c3)cc2NC(=O)c2c[nH]c(=O)cc2C(F)F)CCN1C (stereo in doubt) [Example 448, 4-(difluoromethyl)-N-[4-fluoro-5-(3-fluoro-4-morpholin-4-ylphenyl)-2-[(3R)-3,4-dimethylpiperazin-1-yl]phenyl]-6-oxo-1H-pyridine-3-carboxamide]
7.61 nM	C[C@@H]1CN(c2cc(F)c(C3=CCCN(c4ncc(C#N)s4)CC3)cc2NC(=O)c2c[nH]c(=O)cc2C(F)F)C[C@H](C)N1C [Example 731, N-[5-[1-(5-cyano-1,3-thiazol-2-yl)-2,3,6,7-tetrahydroazepin-4-yl]-4-fluoro-2-[(3R,5S)-3,4,5-trimethylpiperazin-1-yl]phenyl]-4-(difluoromethyl)-6-oxo-1H-pyridine-3-carboxamide]
2.03 nM	C[C@@H]1CN(c2cc(F)c(-c3cc(F)c(C(=O)NC4CCCCC4)c(F)c3)cc2NC(=O)c2c[nH]c(=O)cc2C(F)(F)F)C[C@H](C)N1C [Example 710, N-[5-[4-(cyclohexylcarbamoyl)-3,5-difluorophenyl]-4-fluoro-2-[(3R,5S)-3,4,5-trimethylpiperazin-1-yl]phenyl]-6-oxo-4-(trifluoromethyl)-1H-pyridine-3-carboxamide]
5.66 nM	C[C@@H]1CN(c2cc(F)c(-c3csc(C(=O)N4CCOCC4)n3)cc2NC(=O)c2cn(C)c(=O)cc2C(F)(F)F)C[C@H](C)N1C [Example 527, N-[4-fluoro-5-[2-(morpholine-4-carbonyl)-1,3-thiazol-4-yl]-2-[(3R,5S)-3,4,5-trimethylpiperazin-1-yl]phenyl]-1-methyl-6-oxo-4-(trifluoromethyl)pyridine-3-carboxamide]

test system: MV4-11 cells; experiment: Cell proliferation assay (ATPlite); type: cell-based; details: Homo sapiens, MV4-11, 120 h; MV-411 cells, five days; read-out: In vitro whole cell potency in MV-411 cells, (IC50)
Description: (iv) Cell Proliferation Assay
MV4-11 cells were seeded into a 96-well plate at 1,000 cells/well in 150 μl medium (Alpha-MEM containing 10% FBS, 100 μg/ml Normocin, and 50 μg/ml Gentamycin, Invitrogen). A HP D300 digital dispenser was used to dose cells with DMSO or test compounds across a 10-point range of concentrations (high dose of 10 μM), and cultures were grown in a humidified 5% CO2 incubator at 37° C. After five days, plates were removed from the incubator and equilibrated to room temperature. An equal volume of ATPlite assay reagent was added to each well, and samples were processed according to manufacturer's instructions (Perkin Elmer). Luminescent signal was measured using an Envision plate reader equipped with a US-Luminescence detector.

IC50	SMILES
27 nM	C[C@@H]1CN(c2cc(F)c(-c3ccnc(N(C)C)n3)cc2NC(=O)c2c[nH]c(=O)cc2C(F)(F)F)C[C@H](C)N1C [Example 540, N-[5-[2-(dimethylamino)pyrimidin-4-yl]-4-fluoro-2-[(3R,5S)-3,4,5-trimethylpiperazin-1-yl]phenyl]-6-oxo-4-(trifluoromethyl)-1H-pyridine-3-carboxamide]
881 nM	CN1CCN(c2cc(F)c(-c3ccc4c(c3)OCO4)cc2NC(=O)c2c[nH]c(=O)cc2C(F)(F)F)CC1 [Example 5, N-(5-(benzo[d][1,3]dioxol-5-yl)-4-fluoro-2-(4-methylpiperazin-1-yl)phenyl)-6-oxo-4-(trifluoromethyl)-1,6-dihydropyridine-3-carboxamide]
604 nM	CN1CCN(c2cc(F)c(-c3cnc(N4CCOCC4)nc3)cc2NC(=O)c2c[nH]c(=O)cc2C(F)F)CC1 [Example 20, 4-(difluoromethyl)-N-(4-fluoro-2-(4-methylpiperazin-1-yl)-5-(2-morpholinopyrimidin-5-yl)phenyl)-6-oxo-1,6-dihydropyridine-3-carboxamide]
271 nM	CN(C)C1CCN(c2cc(F)c(-c3cnc(N4CCOCC4)nc3)cc2NC(=O)c2c[nH]c(=O)cc2C(F)(F)F)C1 (stereo not shown) [Example 21, N-[2-[3-(dimethylamino)pyrrolidin-1-yl]-4-fluoro-5-(2-morpholin-4-ylpyrimidin-5-yl)phenyl]-6-oxo-4-(trifluoromethyl)-1H-pyridine-3-carboxamide]
> 10000 nM	CN1CCN(c2cc(F)ccc2NC(=O)c2c[nH]c(=O)cc2C(F)(F)F)CC1 [Example 24, N-[4-fluoro-2-(4-methylpiperazin-1-yl)phenyl]-6-oxo-4-(trifluoromethyl)-1H-pyridine-3-carboxamide]
1270 nM	CN1CCN(c2cc(F)c(-c3cnc(NC4CCCCC4)nc3)cc2NC(=O)c2c[nH]c(=O)cc2C(F)(F)F)CC1 [Example 11, N-(5-(2-(cyclohexylamino)pyrimidin-5-yl)-4-fluoro-2-(4-methylpiperazin-1-yl)phenyl)-6-oxo-4-(trifluoromethyl)-1,6-dihydropyridine-3-carboxamide]
> 10000 nM	Cc1ncc(-c2cc(NC(=O)c3c[nH]c(=O)cc3C(F)(F)F)c(N3CCN(C)CC3)cc2F)cn1 [Example 13, N-(4-fluoro-2-(4-methylpiperazin-1-yl)-5-(2-methylpyrimidin-5-yl)phenyl)-6-oxo-4-(trifluoromethyl)-1,6-dihydropyridine-3-carboxamide]
38 nM	C[C@@H]1CN(c2cc(F)c(-c3cnc(N4CCOCC4)nc3)cc2NC(=O)c2c[nH]c(=O)cc2C(F)F)C[C@H](C)N1C [Example 34, 4-(difluoromethyl)-N-[4-fluoro-5-(2-morpholin-4-ylpyrimidin-5-yl)-2-[(3S,5R)-3,4,5-trimethylpiperazin-1-yl]phenyl]-6-oxo-1H-pyridine-3-carboxamide]
929 nM	CCOc1ncc(-c2cc(NC(=O)c3c[nH]c(=O)cc3C(F)(F)F)c(N3CCN(C)CC3)cc2F)cn1 [Example 12, N-(5-(2-ethoxypyrimidin-5-yl)-4-fluoro-2-(4-methylpiperazin-1-yl)phenyl)-6-oxo-4-(trifluoromethyl)-1,6-dihydropyridine-3-carboxamide]
213 nM	CN1CCN(c2cc(F)c(-c3ccc(CN4CCOCC4)nc3)cc2NC(=O)c2c[nH]c(=O)cc2C(F)(F)F)CC1 [Example 41, N-[4-fluoro-2-(4-methylpiperazin-1-yl)-5-[6-(morpholin-4-ylmethyl)pyridin-3-yl]phenyl]-6-oxo-4-(trifluoromethyl)-1H-pyridine-3-carboxamide]
210 nM	CN1CCN(c2cc(F)c(-c3ccc(OC4CCOCC4)nc3)cc2NC(=O)c2c[nH]c(=O)cc2C(F)(F)F)CC1 [Example 30, N-[4-fluoro-2-(4-methylpiperazin-1-yl)-5-[6-(oxan-4-yloxy)pyridin-3-yl]phenyl]-6-oxo-4-(trifluoromethyl)-1H-pyridine-3-carboxamide]
72 nM	Cc1ncc(-c2cc(NC(=O)c3c[nH]c(=O)cc3C(F)(F)F)c(N3C[C@@H](C)N(C)[C@@H](C)C3)cc2F)cn1 [Example 33, N-[4-fluoro-5-(2-methylpyrimidin-5-yl)-2-[(3S,5R)-3,4,5-trimethylpiperazin-1-yl]phenyl]-6-oxo-4-(trifluoromethyl)-1H-pyridine-3-carboxamide]
2250 nM	CN1CCN(c2cc(F)c(-c3cccc(CN4CCOCC4)c3)cc2NC(=O)c2c[nH]c(=O)cc2C(F)(F)F)CC1 [Example 2, N-[4-fluoro-2-(4-methylpiperazin-1-yl)-5-[3-(morpholin-4-ylmethyl)phenyl]phenyl]-6-oxo-4-(trifluoromethyl)-1H-pyridine-3-carboxamide]
